Source: patent US10538512B2, “Aminoacylindazole immunomodulators for treatment of autoimmune diseases” (The Rockefeller University, priority 2016, dated 2020)

Experiments:
Human alpha-thrombin = target: T1, Human alpha-thrombin (Homo sapiens, UniProt P00734); test: Thrombin counterscreen for selectivity, fluorogenic substrate assay; type: biochemical; settings: Human alpha-thrombin 12.5 nM, Boc-Val-Pro-Arg-AMC 20 μM, 10 min preincubation
T1 construct: Human alpha-thrombin (Enzyme Research Labs); purchased Enzyme Research Labs
Outline: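 Compounds, about 1–100 μM, preincubated 10 min at room temperature with enzyme, then Boc-Val-Pro-Arg-AMC added at 20 μM final.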

Human FXIIa = target: T2, Human FXIIa (Homo sapiens, UniProt P00748); test: Factor XIIa (FXIIa) inhibitory activity, chromogenic substrate assay; type: biochemical; settings: Human FXIIa 12.5 nM, Pefachrome XIIa 400 μM, 10 min preincubation
T2 construct: active coagulation factor XII (FXIIa); purchased Enzyme Research Labs
T2 sequence (P00748 373-615 limits assumed): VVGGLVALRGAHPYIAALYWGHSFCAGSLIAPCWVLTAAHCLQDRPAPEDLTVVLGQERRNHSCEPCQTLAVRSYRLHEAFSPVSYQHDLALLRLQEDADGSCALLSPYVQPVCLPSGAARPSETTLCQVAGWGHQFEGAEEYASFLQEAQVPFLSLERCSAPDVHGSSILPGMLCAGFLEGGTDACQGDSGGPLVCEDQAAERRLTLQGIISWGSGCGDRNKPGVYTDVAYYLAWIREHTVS
T2 sequence (P00748 20-372 partner limits assumed): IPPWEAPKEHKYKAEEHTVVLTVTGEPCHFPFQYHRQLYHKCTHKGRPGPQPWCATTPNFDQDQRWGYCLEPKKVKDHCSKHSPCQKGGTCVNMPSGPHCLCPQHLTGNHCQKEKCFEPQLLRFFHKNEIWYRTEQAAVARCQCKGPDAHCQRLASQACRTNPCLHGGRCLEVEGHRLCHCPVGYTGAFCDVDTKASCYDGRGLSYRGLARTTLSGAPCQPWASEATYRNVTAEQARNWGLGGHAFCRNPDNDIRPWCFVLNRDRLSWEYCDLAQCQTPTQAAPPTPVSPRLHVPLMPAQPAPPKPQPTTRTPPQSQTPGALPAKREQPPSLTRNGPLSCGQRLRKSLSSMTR
Outline: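 Activity was taken as the rate of absorbance increase at 405 nm, read at 37 °C after adding 400 μM (final) Pefachrome XIIa. Compounds spanning roughly 1–100 μM were first preincubated with enzyme for 10 min at room temperature in HEPES pH 7.4-buffered HBSS/TBS-Tween.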

Row | IC50 (Human alpha-thrombin) [µM] | IC50 (Human FXIIa) [µM] | Compound
1 | > 150 | 6 | Nc1c2c(nn1C(=O)[C@H]1CCNc3ccccc31)CC[C@H](O)C2 (single isomer, unassigned) [Example 170, ((5S*)-3-amino-5-hydroxy-4,5,6,7-tetrahydroindazol-2-yl)((4S*)-1,2,3,4-tetrahydroquinolin-4-yl)methanone]
2 | > 75 | 1.2 | Nc1c2c(nn1C(=O)[C@@H]1CCNc3ccc(F)cc31)CC[C@H](O)C2 (relative stereo) [Example 134, ((5S*)-3-amino-5-hydroxy-4,5,6,7-tetrahydro-1H-indazol-2-yl)((4R*)-6-fluoro-1,2,3,4-tetrahydroquinolin-4-yl)methanone]
3 | > 100 | 0.04 | Nc1c2c(nn1C(=O)[C@H]1CCNc3c(Cl)cccc31)C[C@H](O)CC2 (single isomer, unassigned) [Example 209, ((6R*)-3-amino-6-hydroxy-4,5,6,7-tetrahydroindazol-2-yl)((4S*)-8-chloro-1,2,3,4-tetrahydroquinolin-4-yl)methanone]
4 | 29 | 0.06 | Nc1c2c(nn1C(=O)[C@H]1CCNc3ccc(F)cc31)CC[C@@H](F)C2 (single isomer, unassigned) [Example 137, ((5R*)-3-amino-5-fluoro-4,5,6,7-tetrahydroindazol-2-yl)((4S*)-6-fluoro-1,2,3,4-tetrahydroquinolin-4-yl)methanone]
5 | > 50 | 17 | Cc1[nH]c2ccccc2c1C(=O)n1nc(N)c2c1CCCC2 [Example 154]
6 | > 100 | > 100 | Nc1nn(C(=O)[C@@H]2CCNc3ccccc32)c2c1C[C@H](O)CC2 (single isomer, unassigned) [Example 168, ((5R*)-3-amino-5-hydroxy-4,5,6,7-tetrahydroindazol-1-yl)((4R*)-1,2,3,4-tetrahydroquinolin-4-yl)methanone]
7 | > 100 | 3.3 | Nc1c2c(nn1C(=O)[C@@H]1CCNc3c(Cl)cccc31)C[C@H](O)CC2 (single isomer, unassigned) [Example 210, ((6R*)-3-amino-6-hydroxy-4,5,6,7-tetrahydroindazol-2-yl)((4R*)-8-chloro-1,2,3,4-tetrahydroquinolin-4-yl)methanone]
8 | 25 | 0.7 | Cc1cc2c(C(=O)n3nc(N)c4c3CCC(F)(F)C4)cccc2[nH]1 [Example 122, (3-amino-5,5-difluoro-4,5,6,7-tetrahydro-2H-indazol-1-yl)(2-methyl-1H-indol-4-yl)methanone]
9 | > 100 | 30 | Nc1nn(C(=O)c2cccc3[nH]ncc23)c2c1CCCC2 [Example 157]
10 | > 150 | 0.05 | Nc1c2c(nn1C(=O)[C@H]1CCNc3ccc(F)cc31)CC[C@@H](O)C2 (single isomer, unassigned) [Example 129, ((5R*)-3-amino-5-hydroxy-4,5,6,7-tetrahydro-2H-indazol-2-yl)(4(S*)-6-fluoro-1,2,3,4-tetrahydroquinolin-4-yl)methanone]
11 | 37 | 0.02 | Nc1c2c(nn1C(=O)[C@H]1CCCc3[nH]c(Cl)cc31)CC[C@@H](O)C2 (single isomer, unassigned) [Example 126, ((5R*)-3-amino-5-hydroxy-4,5,6,7-tetrahydroindazol-2-yl)((4S*)-2-chloro-4,5,6,7-tetrahydro-1H-indol-4-yl)methanone]

The next lines start with the compound.

Row | Compound | IC50 (Human alpha-thrombin) [µM] | IC50 (Human FXIIa) [µM]
12 | Nc1nn(C(=O)c2cccc3[nH]c(C4CC4)cc23)c2c1CCCC2 (single isomer, unassigned) [Example 54, (3-amino-4,5,6,7-tetrahydroindazol-1-yl)(2-cyclopropyl-1H-indol-4-yl)methanone] | > 85 | 30
13 | Nc1nn(C(=O)C2OCCc3ccccc32)c2c1CCCC2 (single isomer, unassigned) [Example 15, (3-amino-4,5,6,7-tetrahydroindazol-1-yl)(isochroman-1-yl)methanone] | > 100 | > 100
14 | CCCn1ccc2c(C(=O)n3nc4c(c3N)CCCC4)cccc21 [Example 36, (3-amino-4,5,6,7-tetrahydroindazol-2-yl)(1-propyl-1H-indol-4-yl)methanone] | > 80 | 0.2
15 | CC(C)(C)c1cccc(C(=O)n2nc3c(c2N)CCCC3)c1 [Example 31, (3-amino-4,5,6,7-tetrahydroindazol-2-yl)(3-tert-butylphenyl)methanone] | > 50 | 0.15
16 | Cc1cc2c(s1)CCCC2C(=O)n1nc2c(c1N)CCCC2 (centres unmarked) [Example 86, (3-amino-4,5,6,7-tetrahydroindazol-2-yl)(2-methyl-4,5,6,7-tetrahydrobenzo[b]thiophen-4-yl)methanone] | > 80 | 0.5
17 | Cc1csc(C)c1C(=O)n1cc2c(n1)CCCC2 [Example 35, 2-[(2,4-dimethylthiophen-3-yl)carbonyl]-4,5,6,7-tetrahydro-2H-indazole] | > 100 | > 100
18 | Nc1c2c(nn1C(=O)c1cccc3[nH]ccc13)CCCC2 (single isomer, unassigned) [Example 1, (3-Amino-4,5,6,7-tetrahydro-2H-indazol-2-yl)(1H-indol-4-yl)methanone] | 25 | 0.1
19 | Nc1c2c(nn1C(=O)c1csc3ccccc13)CCCC2 [Example 32, (3-amino-4,5,6,7-tetrahydroindazol-2-yl)(benzo[b]thiophen-3-yl)methanone] | > 50 | 0.15
20 | Cc1cc2c(C(=O)n3nc4c(c3N)CCCC4)cccc2[nH]1 (single isomer, unassigned) [Example 9, (3-Amino-4,5,6,7-tetrahydroindazol-2-yl)(2-methyl-1H-indol-4-yl)methanone] | 40 | 0.02
21 | Nc1c2c(nn1C(=O)c1coc3ccccc13)CCCC2 [Example 41, (3-amino-4,5,6,7-tetrahydroindazol-2-yl)(benzofuran-3-yl)methanone] | > 100 | 1.2
22 | Cc1nn(C(=O)c2cccc3[nH]ccc23)c2c1CCCC2 (single isomer, unassigned) [Example 4, (1H-indol-4-yl)(3-methyl-4,5,6,7-tetrahydroindazol-1-yl)methanone] | 45 | 65
23 | CCc1cc2c(C(=O)n3nc4c(c3N)CCCC4)cccc2[nH]1 [Example 50, (3-amino-4,5,6,7-tetrahydroindazol-2-yl)(2-ethyl-1H-indol-4-yl)methanone] | 25 | 0.01
24 | CCc1csc(C)c1C(=O)n1nc(N)c2c1CCCC2 (single isomer, unassigned) [Example 19, (3-amino-4,5,6,7-tetrahydroindazol-1-yl)(4-ethyl-2-methylthiophen-3-yl)methanone] | > 100 | > 100
25 | Nc1c2c(nn1C(=O)C1CCCc3ccccc31)CCCC2 (single isomer, unassigned) [Example 6, (R*)-(3-amino-4,5,6,7-tetrahydroindazol-2-yl)(1,2,3,4-tetrahydronaphthalen-1-yl)methanone] | > 50 | ≥ 50
26 | Cc1cc2ccc(C(=O)n3nc(N)c4c3CCCC4)cc2o1 [Example 61, (3-amino-4,5,6,7-tetrahydroindazol-1-yl)(2-methylbenzofuran-6-yl)methanone] | 20 | > 50
27 | CCc1cc2c(C(=O)n3nc(N)c4c3CCCC4)cccc2n1C (single isomer, unassigned) [Example 67, (3-amino-4,5,6,7-tetrahydroindazol-1-yl)(2-ethyl-1-methyl-1H-indol-4-yl)methanone] | > 50 | > 50
28 | CCc1cscc1C(=O)n1nc2c(c1N)CCCC2 (single isomer, unassigned) [Example 11, (3-Amino-4,5,6,7-tetrahydroindazol-2-yl)(4-ethylthiophen-3-yl)methanone] | > 50 | 0.2
29 | Nc1c2c(nn1C(=O)C1CCCc3ccccc31)CCCC2 (single isomer, unassigned) [Example 5, (S*)-(3-Amino-4,5,6,7-tetrahydroindazol-2-yl)(1,2,3,4-tetrahydronaphthalen-1-yl)methanone] | > 50 | 1.7
30 | Nc1c2c(nn1C(=O)c1cccc3c1ccn3Cc1ccccc1)CCCC2 [Example 30, (3-amino-4,5,6,7-tetrahydroindazol-2-yl)(1-benzyl-1H-indol-4-yl)methanone] | > 70 | 5
31 | Nc1c2c(nn1C(=O)c1cccc3[nH]c(Br)cc13)CCCC2 (single isomer, unassigned) [Example 62, (3-amino-4,5,6,7-tetrahydroindazol-2-yl)(2-bromo-1H-indol-4-yl)methanone] | 20 | 0.01
